# Experiments:
# [1] = test system: THP-1 macrophages; test: VEGF expression/secretion in lactic acid-treated PMA-differentiated THP-1 macrophages (real-time PCR, ELISA); assay type: cell-based, human
# Procedure: (§1) HUVEC (Human umbilical vein endothelial cell; Lonza Ltd., Basel, Switzerland) was cultured in EGM-2 (endothelial growth medium-2; Lonza). A human acute monocytic leukemia THP-1 cell line was maintained in RPMI medium containing 10% FBS (Gibco). 15 ng/ml PMA (Sigma-Aldrich Corp., St. Louis, Mo., USA) and THP-1 cells were cultured under the conditions of 37° C., 5% CO2 for 2 days, and the THP-1 cells were differentiated into macrophages.
# The confluent ARPE-19 monolayer cells maintained in the 24-well plate were incubated with 10 mM L(+)-lactic acid (Sigma-Aldrich Corp.) under presence or absence of α-CHC (α-cyano-4-hydroxycinnamic acid; Sigma-Aldrich) which was an MCT inhibitor (monocarboxylate transporter inhibitor) of 3 mM for a specified period. HUVEC was inoculated to a 24-well plate at a density of 1×10^5/well, and when cells reached 60% to 70% confluence, cells were exposed to 10 mM L(+)-lactic acid under presence or absence of 3 mM α-CHC. The THP-1 cells were inoculated in a 24-well plate at a density of 3)(10^5/well, and they were differentiated into macrophages by PMA treatment, and then were cultured with 20 mM L(+)-lactic acid under presence or absence of 3 mM α-CHC.
# In addition, the THP-1 cells were inoculated to a 24-well plate at a density of 3)(10^5/well, and were differentiated into macrophages by PMA treatment, and then were cultured with 20 mM L(+)-lactic acid, by treating SR13800 (Tocris Bioscience, Bristol, UK) at a concentration of 0.5 to 2 μM and AR-C155858 at a concentration of 300 to 500 nM, respectively, thereto.
# Cells were treated with lactic acid for 24 hours. The medium was collected and centrifuged at 587 g for 5 minutes and particles were removed and stored at −80° C. before performing ELISA.
# (§2) The retina and RPE-choroid tissue were isolated from the control (naive; normal group in which CNV was not induced) CNV mouse (on day 3 after laser irradiation) or diabetic retinopathy mouse (on week 20 after STZ administration), and the isolated tissue was homogenized in ice-cold RIPA lysis buffer (Thermo Scientific, Rockford, Ill., USA) containing 1% protease inhibiting cocktail and 1% phosphatase inhibiting cocktail (GenDEPOT, Katy, Tex., USA). After centrifuging at 15,871 g for 15 minutes, the isolated supernatant was used for ELISA analysis. Secretion of VEGF was measured using ELISA Duoset system (R & D Systems, Minneapolis, Minn., USA) according to the manufacturer's instructions.
# Total RNA was extracted in cells using trizole (Invitrogen, Carlsbad, Calif., USA) according to the manufacturer's instructions. RNA concentration/quality was evaluated using a nanodrop spectrophotometer (NanoDrop Technology, Wilmington, Del., USA). An equal amount of RNA was under reverse transcription to cDNA using a reverse transcription kit (Enzynomics, Daejeon, Korea), and quantitative real-time PCR (ABI PRISM 7900, Applied Biosystems) was performed using SYBR Green PCR Master Mix (Applied Biosystems, Foster City, Calif., USA) to measure gene expression. In 12 minutes at 95° C., a cycle consisting of 10 seconds at 95° C. and 30 seconds at 60° C. was performed 50 times.
# Relative mRNA expression of each sample was standardized by β-actin and RPL37A, and statistics were analyzed using Student's unpaired t-test. The sequences of primers used for amplification were disclosed in the following Table 1.
# [2] = test system: diabetic retinopathy-induced mice; test: ELISA of VEGF protein in retina and RPE-choroid of STZ diabetic retinopathy-induced mice; assay type: in vivo, mouse; conditions: intravitreal 2 μM SR13800 2 μl, FIG. 13
# Procedure: (§3) After administering STZ (streptozotocin, Sigma) to the peritoneal cavity of male C57BL6/J mice aged 7 to 8 weeks, whether high blood glucose was induced was confirmed by measuring blood glucose in 2 days. Mice of which blood glucose was induced to 400 mg/dL or more were selected, and used in the following experiment. From about 10 weeks after administering STZ, diabetic retinopathy began to appear.
# (§4) At about day 140 after administrating STZ to the diabetic retinopathy-induced mice, 3 mM a-CHC 2 μl dissolved in PBS, 2 μM SR13800 2 μl dissolved in PBS, or PBS (vehicle) […] was intravitreally injected and it was used in the following experiment.
# as §2
# [3] = test system: diabetic retinopathy-induced mice; test: IB4 staining of retina of STZ diabetic retinopathy-induced mice (bleeding and angiogenesis); assay type: in vivo, mouse; conditions: intraocular (intravitreal) injection, FIG. 14
# Procedure: as §3, §4
# Eyes of mice in which diabetes was induced by STZ, prepared by the method of Referential example 3 were extracted and fixed in 4% paraformaldehyde for 1 hour. The anterior segment was removed, and then the retinal tissue was cultured with FITC-conjugated isolectin B4 (Sigma) at 4° C. overnight. After washing with PBS for 10 minutes 10 times using an orbital shaker at a room temperature, the stained tissue was examined under Olympus FV1000 Confocal Scanning Scope.
# [4] = test system: ARPE-19; test: VEGF expression in lactic acid-treated ARPE-19 retinal pigment epithelium cells; assay type: cell-based, human; conditions: ARPE-19, 10 mM lactic acid vs untreated control; FIG. 4a
# Procedure: Human APRE-19 cells were obtained from ATCC (Manassas, Va., USA), and were cultured in DMEM (Dulbecco's modified Eagle's medium)/F12 medium (1:1, USA) supplemented by 10% bovine fetal serum (FBS) (Gibco, Carlsbad, Calif.), 1% penicillin-streptomycin (Gibco) and 2 mM L-glutamine (Gibco) in a wet incubator under the conditions of 37° C., 5% CO2. For ARPE-19 monolayer culture, ARPE-19 cells were inoculated in a 24-well tissue culture plate (1.53105 cells per well; Corning, Corning, N.Y., USA) and were maintained in DMEM/F12 medium in which serum was reduced (1% FBS). Confluent monolayer culture having TER (Transepithelial resistance) of 40 Ωcm2 or more was used in the experiment. […]
# (§5) Total RNA was extracted in cells using trizole (Invitrogen, Carlsbad, Calif., USA) according to the manufacturer's instructions. RNA concentration/quality was evaluated using a nanodrop spectrophotometer (NanoDrop Technology, Wilmington, Del., USA). An equal amount of RNA was under reverse transcription to cDNA using a reverse transcription kit (Enzynomics, Daejeon, Korea), and quantitative real-time PCR (ABI PRISM 7900, Applied Biosystems) was performed using SYBR Green PCR Master Mix (Applied Biosystems, Foster City, Calif., USA) to measure gene expression. […]
# [5] = test system: HUVEC; test: VEGF expression in lactic acid-treated HUVEC; assay type: cell-based, human; conditions: 10 mM lactic acid vs untreated control, FIG. 4b
# Procedure: as §1
# The confluent ARPE-19 monolayer cells maintained in the 24-well plate were incubated with 10 mM L(+)-lactic acid (Sigma-Aldrich Corp.) under presence or absence of α-CHC (α-cyano-4-hydroxycinnamic acid; Sigma-Aldrich) which was an MCT inhibitor (monocarboxylate transporter inhibitor) of 3 mM for a specified period. […]
# as §5
# [6] = test system: HUVEC; test: Tube formation assay in HUVEC with macrophage conditioned medium; assay type: cell-based, human; conditions: for tube formation: FIG. 6a
# Procedure: Matrigel (Corning) with reduced growth factors was thawed at 4° C. overnight. Each well of the 24-well plate cooled in advance was coated with […] and incubated at 37° C. for 40 minutes. HUVEC (3×10^4 cells) was suspended in EGM-2 medium of 100 μl, and aliquoted in a macrophage conditioned medium of 400 μl, and cultured under the condition of 37° C., 5% CO2 for 12 hours. The macrophage conditioned medium means that 20 mM lactic acid is treated for 24 hours by stimulating macrophages (or macrophages pretreated for 1 hour with α-CHC) and the medium was replaced and then the supernatant was collected.
# Endothelial cell tube formation was visualized by Calcein AM (Corning) and then imaging was conducted using Leica CTR6000 fluorescence microscope (Wetzlar, Germany). The number of the capillary-like structure was quantified by manual counting of low-power field (×10). For each well, 5 independent fields were evaluated, and the mean branch number per field (magnification, ×10) was measured.
# [7] = test system: CNV mice; test: Flow cytometry for VEGF in macrophages of CNV mice after intravitreal injection; assay type: in vivo, mouse; conditions: intravitreal 3 mM α-CHC 2 μl on day 1 after laser, vs vehicle group, FIG. 8a, 8b
# Procedure: (§6) Female C57BL/6J mice aged 7 to 8 weeks were anesthetized by intraperitoneally injecting a mixture of Ketamine 100 mg/kg and Xylazine 10 mg/kg, and by dropping 1% tropicamide (Alcon Laboratories Inc., Fort Worth, Tex., USA) in eyes, the pupils of the mice were expanded. Laser was irradiated in a direction of 3, 6, 9 and 12 o'clock direction of the 2 disc diameter in an optic disc by 831-nm 106 diode laser photocoagulation method (75 μm spot size, 0.1 sec duration time, 120 mW). Bubbling or pop sensing by laser photocoagulation was considered a successful rupture of the Bruch membrane.
# (§7) To evaluate the anti-angiogenic effect by blocking lactic acid intake in macrophages, on day 1 after laser irradiation, when the macrophages began to infiltrate the laser irradiation site (image area), 3 mM α-CHC 2 μl or PBS (vehicle) 2 μl dissolved in PBS was intravitreally injected, and it was used in the following experiment.
# After laser irradiation, on day 1, 3, 7, 14 and 21, laser-irradiated eyes were extracted. […]
# Cells labeled using LSR-II cytometer (BD Biosciences, San Jose, Calif., USA) were analyzed and data were analyzed using FlowJo software (version 7.6.2, Ashland, Oreg., USA).
# [8] = test system: CNV mice; test: Immunohistological staining for F4/80 and VEGF in RPE-choroid of CNV mice; assay type: in vivo, mouse; conditions: day 3 after laser irradiation
# Procedure: as §6, §7
# Laser was irradiated to mice by the method of Referential example 2, and on day 3, eyes were extracted from mice, and fixed in 4% paraformaldehyde for 1 hour. After removing the retina, the RPE-choroid tissue was cultured with rat anti-mouse F4/80 (Bio-Rad, Richmond, Calif., USA) and APC conjugated anti-mouse VEGF (C-1; Santa Cruz Biotechnology, Inc.) at […] overnight. […] The regions of infiltrated macrophages and secreted VEGF were measured using ImageJ software.
# [9] = test system: CNV mice; test: ELISA of VEGF protein in RPE/choroid and retina of CNV mice; assay type: in vivo, mouse; conditions: RPE/choroid tissue of CNV mice, vs vehicle group, FIG. 8e
# Procedure: (§8) Female C57BL/6J mice aged 7 to 8 weeks were anesthetized by intraperitoneally injecting a mixture of Ketamine 100 mg/kg and Xylazine 10 mg/kg, and by dropping 1% tropicamide (Alcon Laboratories Inc., Fort Worth, Tex., USA) in eyes, the pupils of the mice were expanded. Laser was irradiated in a direction of 3, 6, 9 and 12 o'clock direction of the 2 disc diameter in an optic disc by 831-nm 106 diode laser photocoagulation method (75 μm spot size, 0.1 sec duration time, 120 mW). Bubbling or pop sensing by laser photocoagulation was considered a successful rupture of the Bruch membrane. […]
# The retina and RPE-choroid tissue were isolated from the control (naive; normal group in which CNV was not induced) CNV mouse (on day 3 after laser irradiation) or diabetic retinopathy mouse (on week 20 after STZ administration), and the isolated tissue was homogenized in ice-cold RIPA lysis buffer (Thermo Scientific, Rockford, Ill., USA) containing 1% protease inhibiting cocktail and 1% phosphatase inhibiting cocktail (GenDEPOT, Katy, Tex., USA). […] Secretion of VEGF was measured using ELISA Duoset system (R & D Systems, Minneapolis, Minn., USA) according to the manufacturer's instructions.
# [10] = test system: CNV mice; test: Quantification of choroidal neovascularization (IB4 staining) in CNV mice; assay type: in vivo, mouse; conditions: RPE-choroid tissue of CNV mice, day 7 after laser irradiation; vehicle group 141,472.9±49,186; FIG. 8f, 8g
# Procedure: as §8
# For evaluation of CNV, on day 1 after laser irradiation, PBS or α-CHC was injected in eyes, and in 6 days (on day 7 after laser irradiation), the RPE-choroid tissue isolated from the eyes of CNV mice was immunohistologically stained with Alexa-Fluor 594-conjugated IB4 (isolectin B4) (Molecular Probes) to visualize CNV. Images obtained by Olympus FV1000 Confocal Scanning Scope were treated in IMARIS imaging software (Bitplane, Zurich, Switzerland) to quantify the IB4-positive CNV amount.
structure (smiles),measurement,setting,value
Cc1n[nH]c(C)c1Cc1sc2c(c1C(=O)N1C[C@H](O)CO1)c(=O)n(C)c(=O)n2CC(C)C [AR-C155858],VEGF expression increased by lactic acid,"[1]; THP-1 macrophages, 20 mM lactic acid plus AR-C155858 300 to 500 nM, FIG. 9b",does not show significant changes
CC(C)Cc1nn(C)c(=O)c2c(SCCCO)n(Cc3cccc4ccccc34)cc12 [SR13800],VEGF expression in the RPE-choroid tissue,[2]; RPE-choroid tissue,did not affect
same,VEGF expression increased in the retinal tissue by induction of diabetic retinopathy,[2]; retinal tissue,significantly reduced
same,bleeding and angiogenesis increased in the diabetic retinopathy model,[3],significantly reduced
same,VEGF secretion,"[1]; THP-1 macrophages, 20 mM lactic acid plus SR13800 0.5 to 2 μM vs only lactic acid, dependent on inhibitor concentration, FIG. 9a",reduced
"CC(O)C(=O)O (stereo not drawn) [lactic acid, L(+)-lactic acid]",gene transcriptome and protein expression for VEGF,[4],did not change significantly
same,gene transcriptome and protein expression for VEGF,[5],did not change significantly
same,increase of number of branches,"[6]; HUVEC with supernatant of lactic acid-stimulated macrophages vs lactic acid untreated group, FIG. 6b",about 5 times
same,tube formation,[6]; HUVEC with supernatant of macrophages stimulated with 20 mM lactic acid,significantly increased
same,increase of VEGF expression after treatment of lactic acid,"[1]; PMA-differentiated THP-1 macrophages, 20 mM lactic acid vs untreated control, FIG. 4c",≥ 3 times
same,increase of VEGF secretion after stimulating with lactic acid,"[1]; THP-1 macrophages, 24 hours, FIG. 5",about 5 times
"N#CC(=Cc1ccc(O)cc1)C(=O)O [α-CHC, α-cyano-4-hydroxycinnamic acid]",bleeding and angiogenesis increased in the diabetic retinopathy model,[3],reduced
same,VEGF expression (relative mean fluorescence intensity),[7],significantly reduced
same,number of branches,"[6]; HUVEC with supernatant of macrophages pretreated with α-CHC then lactic acid, vs only lactic acid, FIG. 6b",significantly reduced
same,tube formation,[6]; HUVEC with supernatant of macrophages pretreated with α-CHC then lactic acid,reduced
same,VEGF positive region in the F4/80 stained macrophage region,"[8]; intravitreal injection, vehicle group 523,378±165,071, FIG. 8c, 8d","383,738±196,716 μm2"
same,area of infiltrated macrophages,"[8]; vs vehicle group, FIG. 8d",no significant difference
same,VEGF secretion (VEGF expression),"[1]; THP-1 macrophages, lactic acid plus α-CHC vs only lactic acid, dependent on inhibitor concentration, FIG. 5",reduced
same,amount of VEGF protein increased by CNV induction,[9],significantly reduced
same,IB4-positive endothelial cells (CNV amount),[10],"74,160.6±12,339.5 μm^3"

# Reference: patent US11407999B2, “Pharmaceutical composition for preventing or treating angiogenesis relating ocular diseases comprising inhibitors of MCT expression or activity” (Seoul National University R&DB Foundation, priority 2019, dated 2022)
